# Read-outs that look alike come from different tables or passages of the source.
# Legend:
# [1] = Extrapolation to humans of the PK parameter values observed in dogs; format: in vivo; settings: human, for a body weight of 64 kg in humans, extrapolated from dogs, read-out: Vdss
# Description: As the pharmacokinetic profiles, i.e., the pharmacokinetic parameter values, are identical in humans and dogs, just as in all […] animals, it is possible to extrapolate to humans the PK parameter values observed in dogs.
# [2] = Stability in acidic gastric medium; format: physicochemical
# [3] = Stability of the plasma extract in the injection solvent at about +4° C.; format: physicochemical, human; settings: for Deviation T0 + 24 h/T0: stored on an autosampler
# Method: The plasma extracts will be analyzed repeatedly during the validation period in order to check for possible degradation of the compounds during storage in the solvent at about +4° C. The evaluation of stability is based on the back-calculated concentrations, which should be within ±15% (except for LOQ±20%), and an acceptable chromatographic peak shape.
# [4] = Stability of melatonin in frozen human plasma during freeze-thaw cycles (HPLC-MS/MS); format: in vitro ADME; settings: human plasma samples stored at about −20° C.
# Method: Between each cycle, the samples will be maintained under storage temperature conditions (about −20° C.) identical to those used for normal analysis of the samples.
# [5] = cited from earlier work
smiles,measurement,setting,value
"C=C1c2[nH]c3ccc(OC)cc3c2CCN1C(C)=O [Valentonin, 2-acetyl-6-methoxy-1-methylene-3,4-dihydro-β-carboline]",Vd,[1]; in vivo,320 L
same,Stability in acidic gastric medium,[2],completely hydrolyzed in acidic gastric medium
same,Stability in acidic gastric medium,[2]; listed as VLT,completely degraded in acidic gastric medium
"COc1ccc2[nH]c3c(c2c1)CCN=C3C [6-Methoxyharmalan, 6-methoxy-1-methyl-3,4-dihydro-β-carboline]",Vd,"[1]; plasma, intravenous",960 L
COc1ccc2[nH]cc(CCNC(C)=O)c2c1 [melatonin],Deviation T0 + 24 h/T0,[3]; 2 pg/ml,1.65%
same,Deviation T0 + 24 h/T0,[3]; 200 pg/ml,3.33%
same,Time sample extracts were stable in the injection solvent,"[3]; injection vials stored at about +4° C., after the first injection",at least 24 hours
same,Effect of freeze-thaw cycles on stability,[4],no effect on the stability
same,"Maximum plasma concentrations observed from 1 a.m. onwards, mean value",[5]; 12 older subjects,45.6 pg/mL
same,"Maximum plasma concentrations observed from 1 a.m. onwards, mean value",[5]; 12 young subjects,54.5 pg/mL
